According to patent US7579356B2, “Thia-tetraazaacenaphthylene kinase inhibitors” (Janssen Pharmaceutica NV, priority 2005, dated 2009):

Key:
c-Src kinase (human) = target: T1, c-Src kinase (human) (Homo sapiens, UniProt P12931); test: c-Src Kinase Assay; assay type: biochemical; details: test concentration of 2 μM; multiple values are separate assay results
T1 construct: purchased Upstate Biotechnology, Lake Placid, N.Y
Outline: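 Inhibition was read as 33P incorporation, counted on P30 filtermats, after a 40 min, 30° C reaction. Human c-Src acted on 100 μM Cdc2 peptide with 5 μM ATP (final), pH 7.0 MOPS/MgCl2. Values are percent inhibition at 2 μM compound, or IC50 where determined.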

Lyn kinase (human) = target: T2, Lyn kinase (human) (Homo sapiens, UniProt P07948); test: Lyn Kinase Assay; assay type: biochemical; details: test concentration of 2 μM
T2 construct: purchased Upstate Biotechnology, Lake Placid, N.Y
T2 sequence (P07948 whole entry): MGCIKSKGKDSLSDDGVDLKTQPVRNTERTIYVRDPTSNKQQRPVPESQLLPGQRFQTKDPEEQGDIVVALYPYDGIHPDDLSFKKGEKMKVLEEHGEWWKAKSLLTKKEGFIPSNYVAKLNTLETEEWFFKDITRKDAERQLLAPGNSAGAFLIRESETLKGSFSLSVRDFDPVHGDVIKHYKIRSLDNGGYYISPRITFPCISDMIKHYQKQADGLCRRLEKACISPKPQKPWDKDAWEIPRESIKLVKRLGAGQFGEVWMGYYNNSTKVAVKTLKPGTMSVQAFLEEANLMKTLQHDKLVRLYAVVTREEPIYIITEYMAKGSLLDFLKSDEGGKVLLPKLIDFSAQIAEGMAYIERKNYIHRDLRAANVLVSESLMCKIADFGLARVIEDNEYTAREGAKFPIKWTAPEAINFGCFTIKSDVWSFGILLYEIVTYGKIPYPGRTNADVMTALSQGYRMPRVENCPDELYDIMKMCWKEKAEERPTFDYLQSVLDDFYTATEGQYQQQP
Outline: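 Radiometric filter-binding assay with recombinant human Lyn, poly(Glu,Tyr) substrate (0.1 mg/mL final), 5 μM ATP plus γ-33P-ATP in MOPS pH 7.5/Mg acetate buffer; 40 min at 30 °C, stopped with phosphoric acid, counted by scintillation. Reported as percent inhibition at 2 μM, with IC50 (μM) where determined.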

A375 malignant melanoma = test: Cell Proliferation Inhibition Assay, A375 (14C-thymidine); assay type: cell-based; details: Homo sapiens, A-375
Source text: (§1) Cell Proliferation Inhibition Assay
(§2) The ability of a test compound to inhibit unregulated cell proliferation may be determined by measuring incorporation of ^14C-labelled thymidine into newly synthesized DNA within cell lines derived from carcinomas originating from several tissues. Accordingly, the effect of a test compound on proliferation of cells with a variety of phenotypes may be determined.
(§3) Carcinoma cell lines used include the HeLa cervical adenocarcinoma from the American Type Culture Collection (ATCC Cat. #CCL2), A375 malignant melanoma (ATCC Cat. #CRL-1619), HCT-116 colon carcinoma (ATCC Cat. #CCL-247), SKBR3 breast carcinoma (ATCC Cat. #HTB-30) and BT474 breast carcinoma (ATCC Cat. #HTB-20).
(§4) The carcinoma cells were trypsinized and counted. The cells (3000-8000 count) were added to each well of a 96-well CytoStar tissue culture treated scintillating microplate (Amersham #RPNQ0160) in complete medium (100 μL) and the plate was then incubated in complete medium for 24 hrs at 37° C. in an inert atmosphere containing 5% CO2.
(§5) Test compound (1 μL) in 100% DMSO was added to the plate test-wells with DMSO only added to control-wells. The plate was incubated in complete medium for a second 24 hr period at 37° C. in an atmosphere containing 5% CO2.
(§6) An aliquot of a solution of Methyl ^14C-thymidine (56 mC/mmol) (NEN #NEC568 or AMersham #CFA532) and complete medium (20 uL to provide 0.2 μCl/well) was then added to each well and the plate was incubated for a third 24 hr period at 37° C. in an atmosphere containing 5% CO2.
(§7) The plate contents were then discarded, the plate washed twice with PBS (200 μL) and then PBS (200 μL) was added to each well. The plate was sealed and the degree of methyl ^14C-thymidine incorporation was quantified on a Packard Top Count.
(§8) Cell proliferation of the Hela cell line was measured using the ATP-Lite method as described in the ATP Lite Kit (Perkin-Elmer Kit Number 6106941) or the C^14 method as described above. Cell proliferation of the other cell lines was measured using the C^14 method.

HCT-116 colon carcinoma = test: Cell Proliferation Inhibition Assay, HCT-116 (14C-thymidine); assay type: cell-based; details: Homo sapiens, HCT-116 cell proliferation
Source text: as §1, §2, §3, §4, §5, §6, §7, §8

T1 sequence (P12931 whole entry): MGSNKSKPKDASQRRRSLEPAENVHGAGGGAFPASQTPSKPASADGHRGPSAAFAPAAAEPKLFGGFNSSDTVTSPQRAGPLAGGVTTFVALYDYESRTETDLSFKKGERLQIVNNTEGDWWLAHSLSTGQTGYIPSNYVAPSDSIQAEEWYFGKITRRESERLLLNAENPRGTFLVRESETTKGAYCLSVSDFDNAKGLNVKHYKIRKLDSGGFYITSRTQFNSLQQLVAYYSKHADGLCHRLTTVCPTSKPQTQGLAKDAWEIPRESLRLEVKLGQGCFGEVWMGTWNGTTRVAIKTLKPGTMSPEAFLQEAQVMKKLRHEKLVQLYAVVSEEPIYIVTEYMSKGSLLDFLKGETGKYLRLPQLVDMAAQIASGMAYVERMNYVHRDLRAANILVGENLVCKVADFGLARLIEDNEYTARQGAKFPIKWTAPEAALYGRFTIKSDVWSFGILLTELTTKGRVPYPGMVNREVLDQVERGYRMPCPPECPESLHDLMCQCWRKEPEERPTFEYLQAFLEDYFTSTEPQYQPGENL

SMILES | inhibition at 2 µM (c-Src kinase (human)) | inhibition at 2 µM (Lyn kinase (human)) | IC50 (A375 malignant melanoma) | IC50 (HCT-116 colon carcinoma)
Cc1ccc(N2C(=O)Nc3c(C(=O)Nc4ccc(CN5CCOCC5)cc4)sc4ncnc2c34)cc1Br [Cpd 108, 5-(3-bromo-4-methyl-phenyl)-4-oxo-4,5-dihydro-3H-1-thia-3,5,6,8-tetraaza-acenaphthylene-2-carboxylic acid (4-morpholin-4-ylmethyl-phenyl)-amide] | 19% | 69% | 100 µM | 100 µM
Cc1ccc(Br)cc1N1C(=O)Nc2c(C(=O)Nc3ccc(CN4CCOCC4)cc3)sc3ncnc1c23 [Cpd 109, 5-(5-bromo-2-methyl-phenyl)-4-oxo-4,5-dihydro-3H-1-thia-3,5,6,8-tetraaza-acenaphthylene-2-carboxylic acid (4-morpholin-4-ylmethyl-phenyl)-amide] | 31% | 75% | 10 µM | 10 µM
O=C(NCCCN1CCOCC1)c1sc2ncnc3c2c1NC(=O)N3c1ccc2c(ccn2Cc2cccc(F)c2)c1 [Cpd 95, 5-[1-(3-fluoro-benzyl)-1H-indol-5-yl]-4-oxo-4,5-dihydro-3H-1-thia-3,5,6,8-tetraaza-acenaphthylene-2-carboxylic acid (3-morpholin-4-yl-propyl)-amide] | -15% | 18% | 10 µM | 10 µM
